Experimental data reported in patent US9493401B2, “Glutamate derivatives for topical use as immunomodulatory active ingredient” (PIERRE FABRE DERMO-COSMETIQUE, priority 2012, dated 2016).
Read-outs that look alike come from different tables or passages of the source. Blank lines part the entries; values can stand above or below the molecule they belong to.

Tests used:
human CD4+ lymphocytes = assay: Secretion of cytokines by human CD4+ lymphocytes stimulated with SEB (immuno-regulatory activity); type: cell-based; conditions: Lymphocyte, SEB 300 ng/ml, 24 h
NHEK keratinocytes = assay: Gene expression of inflammatory markers of atopic dermatitis in stimulated NHEK keratinocytes (PCR-Array); type: cell-based, human; conditions: 24 h, vs stimulated control
Description: The primary keratinocytes (NHEK, normal human epidermal keratinocytes) distributed in 24-well plates are preincubated for 1 hour with the active ingredients and then stimulated for 24 hours with a cocktail of 4 agonists giving the possibility of creating in vitro the physio-pathological environment of atopic dermatitis: 100 ng/ml IL4+100 ng/ml IL13+1 μg/ml Poly I:C+5 μg/ml Pam3CSK4: this model gives the possibility of inducing the inflammation mediated by the overexpressed Th2 cytokines in DA (IL4, IL13) and by the bacterial components (mimicked by Pam3CSK4, TLR-2 ligand) and viral components (mimicked by Poly I:C, TLR-3 ligand) of DA. Analysis of the gene expression of the markers of DA is conducted in a PCR-Array with 48 genes and repeated on 3 different donors of NHEK.
For the whole of the markers, the RQ (Relative Quantity) of less than 0.5, at 5 h or 24 h, indicates significant inhibition: • inhibition of the TSLP marker involved in the lymphocyte Th2 polarization and specific of AD; • inhibition of the inflammatory cytokines IL1A, IL8, CSF2, IFNB1, VEGF; • inhibition of the chemokines CCL, CXCL, involved in the recruitment, cutaneous infiltration, and activation of the inflammatory cells (leucocytes, lymphocytes, Th1 and Th2 lymphocytes, monocytes).

HaCaT keratinocytes = assay: Secretion of IL8 by HaCaT keratinocytes stimulated with TNFα (anti-inflammatory activity); type: cell-based, human; conditions: TNFα 10 ng/ml, 24 h; FIG. 4; in words
Description: The dosage of interleukin 8 is carried out from a sample taken from the supernatant according to the following method: • IL8 is evaluated by ELISA, Duoset IL8 (Ref. DY208E, R&D Systems).

[1] = read-out: inhibition of the production of IL-2
[2] = read-out: inhibition of the production of IL-4
[3] = read-out: inhibition of the production of IL-17

Compound: CCCCCCCCCCCCOC(=O)CC[C@H](N)C(=O)O [Example 4, 5-(n-dodecyl)-L-glutamate or 2-amino-5-(dodecyloxy)-5-oxopentanoic acid]
melting point: 189.9 °C

Compound: CC(C)CCCC(C)CCOC(=O)CC[C@H](N)C(=O)O (stereo partly drawn) [Example 8, 5-(3,7-dimethyloctyl)-L-glutamate or 2-amino-5(3,7-dimethyloctyloxy)-5-oxo-pentanoic acid]
melting point: 150.8 °C
inhibition at 300 µM (human CD4+ lymphocytes; [1]): 29%

Compound: CCCCC(CC)COC(=O)CC[C@H](N)C(=O)O (stereo partly drawn) [Example 12, 5-(2-ethylhexyl)-L-glutamate or 2-amino-5(2-ethylhexyloxy)-5-oxopentanoic acid]
melting point: 157.9 °C
inhibition at 300 µM (human CD4+ lymphocytes; read-out: inhibition of the production of IFNγ): 77%
inhibition at 300 µM (human CD4+ lymphocytes; read-out: inhibition of the production of IL1β): 80%
inhibition at 300 µM (human CD4+ lymphocytes; read-out: inhibition of the production of IL5): 77%
inhibition at 300 µM (human CD4+ lymphocytes; read-out: inhibition of the production of IL6): 44%
inhibition at 300 µM (human CD4+ lymphocytes; read-out: inhibition of the production of IL10): 87%
inhibition at 300 µM (human CD4+ lymphocytes; read-out: inhibition of the production of IL13): 84%
inhibition at 300 µM (human CD4+ lymphocytes; [1]): 43%
inhibition at 300 µM (human CD4+ lymphocytes; [2]): 69%
inhibition at 300 µM (human CD4+ lymphocytes; [3]): 86%
inhibition at 300 µM (human CD4+ lymphocytes; read-out: inhibition of the production of TNFα): 18%
CCL2 (MCP-1) gene expression (NHEK keratinocytes; 100 μM): 0.48 RQ
CCL3 (MIP-1α) gene expression (NHEK keratinocytes; 100 μM): 0.51 RQ
CCL4 (MIP-1β) gene expression (NHEK keratinocytes; 100 μM): 0.14 RQ
CCL5 (RANTES) gene expression (NHEK keratinocytes; 100 μM): 0.42 RQ
CCL20 (MIP-3α) gene expression (NHEK keratinocytes; 100 μM): 0.13 RQ
CSF2 (GMCSF) gene expression (NHEK keratinocytes; 100 μM): 1.55 RQ
CXCL1 (GRO-α) gene expression (NHEK keratinocytes; 100 μM): 0.33 RQ
CXCL2 (MIP-2α) gene expression (NHEK keratinocytes; 100 μM): 0.06 RQ
CXCL9 (Gamma-interferon-induced monokine) gene expression (NHEK keratinocytes; 100 μM): 0.20 RQ
CXCL10 (IP-10) gene expression (NHEK keratinocytes; 100 μM): 0.18 RQ
CXCL11 (I-TAC) gene expression (NHEK keratinocytes; 100 μM): 0.14 RQ
IFNB1 (Interferon beta 1) gene expression (NHEK keratinocytes; 100 μM): 0.19 RQ
IL1A (Interleukin 1, alpha) gene expression (NHEK keratinocytes; 100 μM): 0.53 RQ
IL8 (Interleukin 8) gene expression (NHEK keratinocytes; 100 μM): 0.29 RQ
TSLP (Thymic stromal lymphopoietin) gene expression (NHEK keratinocytes; 100 μM): 0.20 RQ
VEGFC (Vascular endothelial growth factor C) gene expression (NHEK keratinocytes; 100 μM): 0.20 RQ
CCL3 (MIP-1α) gene expression (NHEK keratinocytes; 300 μM): 0.06 RQ
CCL4 (MIP-1β) gene expression (NHEK keratinocytes; 300 μM): 0.02 RQ
CCL5 (RANTES) gene expression (NHEK keratinocytes; 300 μM): 0.20 RQ
CCL20 (MIP-3α) gene expression (NHEK keratinocytes; 300 μM): 0.13 RQ
CSF2 (GMCSF) gene expression (NHEK keratinocytes; 300 μM): 0.33 RQ
CXCL1 (GRO-α) gene expression (NHEK keratinocytes; 300 μM): 0.36 RQ
CXCL2 (MIP-2α) gene expression (NHEK keratinocytes; 300 μM): 0.32 RQ
CXCL9 (Gamma-interferon-induced monokine) gene expression (NHEK keratinocytes; 300 μM): 0.29 RQ
CXCL10 (IP-10) gene expression (NHEK keratinocytes; 300 μM): 0.06 RQ
CXCL11 (I-TAC) gene expression (NHEK keratinocytes; 300 μM): 0.15 RQ
IFNB1 (Interferon beta 1) gene expression (NHEK keratinocytes; 300 μM): 0.26 RQ
IL1A (Interleukin 1, alpha) gene expression (NHEK keratinocytes; 300 μM): 0.53 RQ
IL8 (Interleukin 8) gene expression (NHEK keratinocytes; 300 μM): 0.18 RQ
TSLP (Thymic stromal lymphopoietin) gene expression (NHEK keratinocytes; 300 μM): 0.54 RQ
VEGFC (Vascular endothelial growth factor C) gene expression (NHEK keratinocytes; 300 μM): 0.50 RQ

Compound: N[C@@H](CCC(=O)O)C(=O)O [glutamic acid, reference compound]
anti-inflammatory activity towards the production of IL-8 (HaCaT keratinocytes): not again found

Compound: CCCCCCCCCOC(=O)CC[C@H](N)C(=O)O [Example 3, 5-(n-nonyl)-L-glutamate or 2-amino-5-(nonyloxy)-5-oxopentanoic acid]
anti-inflammatory activity towards the production of IL-8 (HaCaT keratinocytes): anti-inflammatory activity
inhibition at 300 µM (human CD4+ lymphocytes; [1]): 63%
inhibition at 300 µM (human CD4+ lymphocytes; [2]): 70%
inhibition at 300 µM (human CD4+ lymphocytes; [3]): 54%

More lines, now with the values ahead:

melting point: 179.3 °C
Compound: CCCCCCCCCCCCCCCCOC(=O)CC[C@H](N)C(=O)O [Example 6, 5-(n-hexadecyl)-L-glutamate or 2-amino-5-(hexadecyloxy)-5-oxopentanoic acid]

melting point: 184.8 °C
Compound: CCCCCCCCCCCCCCOC(=O)CC[C@H](N)C(=O)O [Example 5, 5-(n-tetradecyl)-L-glutamate or 2-amino-5-oxo-5(tetradecyl)pentanoic acid]

melting point: 180.5 °C
Compound: CCCCCCCCCCCCCCCCCCOC(=O)CC[C@H](N)C(=O)O [Example 7, 5-(n-octadecyl)-L-glutamate or 2-amino-5-(octadecyloxy)-5-oxopentanoic acid]
